Test results reported in article PMC8571282 (Nature Communications, 2021).
Values joined by “and” are separate entries in the source; they are usually repeats but may differ in a detail not shown here. Equal values may be shown once. Read-outs that look alike come from different tables or passages of the source.

Key:
[1] = design: method as in Mackman et al 2021 (JMC 2021, 64(8), 5001-5017); settings: rats, ref Mackman et al 2021 (JMC 2021, 64(8), 5001-5017); cited from earlier work
[2] = design: method as in Mackman et al 2021 (JMC 2021, 64(8), 5001-5017); settings: cynomolgus macaques, ref Mackman et al 2021 (JMC 2021, 64(8), 5001-5017); cited from earlier work
[3] = tested on: SARS-CoV-2 SA/2020 (β, lineage B.1.351); assay: microbe, parasite or virus in culture; format: cell-based; settings: Severe acute respiratory syndrome coronavirus 2, Vero C1008; SA/2020, VeroE6, mean n=3
[4] = Cytotoxicity assay (PrestoBlue), “M2” HAE; settings: human, % cell viability, M2 HAE, 72 h
[5] = tested on: SARS-CoV-2 (WA1/2020 and VOC α, β, γ); assay: microbe, parasite or virus in culture; format: cell-based; settings: Severe acute respiratory syndrome coronavirus 2, Vero C1008; read-out: Half-maximal effective concentrations (EC50), range
[6] = Cytotoxicity assay (PrestoBlue), “F2” HAE; settings: human
[7] = tested on: SARS-CoV-2 WA1/2020 (lineage A); assay: microbe, parasite or virus in culture; format: cell-based; settings: for Virus yield reduction: vehicle = 0
[8] = tested on: SARS-CoV-2-Nluc (WA1/2020-nano luciferase); assay: microbe, parasite or virus in culture; format: cell-based; settings: for A549-hACE2 SARS-CoV-2 Nluc (EC50 determination), normalized signal: replicate values of the experiments
[9] = tested on: well-differentiated primary human airway epithelium cultures; format: cell-based
in vitro [10] = settings: human, % cell viability, 72 h
[11] = Single-dose plasma pharmacokinetics in ferrets; settings: ferret; for plasma concentration of GS-621763: GS-621763 PO 30 mg/kg, 30 mg/kg
“F3” primary HAE cells = assay: Cytotoxicity assay (PrestoBlue), “F3” HAE; settings: 72 h; for % cell viability: F3 HAE
[12] = Cytotoxicity assay (PrestoBlue), “F3” HAE; settings: human
in vitro [13] = settings: human, % cell viability, HEp-2, 33.333 µM, 72 h
[14] = Cytotoxicity assay (PrestoBlue), BHK-21; settings: hamster, BHK-21 cells
[15] = Cytotoxicity assay (PrestoBlue), HEp-2; settings: human, HEp-2 cells
[16] = tested on: SARS-CoV-2 CA/2020 (α, lineage B.1.1.7); assay: microbe, parasite or virus in culture; format: cell-based
[17] = cited from earlier work
[18] = Cytotoxicity assay (PrestoBlue), HCT-8; settings: human, HCT-8 cells
in vitro [19] = settings: human
[20] = tested on: SARS-CoV-2 gamma isolate (BZ/2021, lineage P.1); assay: microbe, parasite or virus in culture; format: cell-based; settings: Severe acute respiratory syndrome coronavirus 2
[21] = tested on: SARS-CoV-2 BZ/2021 (γ, lineage P.1); assay: microbe, parasite or virus in culture; format: cell-based; settings: Severe acute respiratory syndrome coronavirus 2, Vero C1008; BZ/2021, VeroE6, mean n=3
“M6” primary HAE cells = assay: Cytotoxicity assay (PrestoBlue), “M6” HAE; settings: M6 HAE, 72 h
[22] = Cytotoxicity assay (PrestoBlue), “M6” HAE; settings: human
in vitro [23] = settings: human; remark: listed apart in the source

SMILES: CC(C)C(=O)OCC1OC(C#N)(c2ccc3c(N)ncnn23)C(OC(=O)C(C)C)C1OC(=O)C(C)C (centres unmarked) [GS-621763]
- oral F [1]: 57%
- oral F [2]: 28%
- EC50 [3]: 0.11 µM
- viability at 72 h, 100 µM ([4]; 100 µM): 0%
- viability at 72 h, 1.235 µM ([4]; male, 1.235 µM): 107%
- viability at 72 h, 3.704 µM ([4]; male, 3.704 µM): 117%
- viability at 72 h, 33.333 µM ([4]; male, 33.333 µM): 89%
- EC50 [5]: 0.11 to 0.73 µM
- viability at 72 h, 1.235 µM ([6]; female, % cell viability, F2 HAE, 1.235 µM): 100%
- viability at 72 h, 3.704 µM ([6]; female, % cell viability, F2 HAE, 3.704 µM): 117%
- viability at 72 h, 33.333 µM ([6]; female, % cell viability, F2 HAE, 33.333 µM): 82%
- viability at 72 h, 0.046 µM ([6]; female, “F2” primary human airway epithelial (HAE) cells, % cell viability, F2 HAE, 0.046 µM): 86%
- viability at 72 h, 100 µM ([6]; % cell viability, F2 HAE, 100 µM): 1%
- CC50 at 72 h ([6]; CC50, “F2” HAE): 43.8 µM
- EC50 ([7]; Severe acute respiratory syndrome coronavirus 2, Vero C1008, WA1/2020, VeroE6, mean n=3): 0.73 µM
- Virus yield reduction ([7]; WA1/2020, VeroE6, 0.617284 µM): -0.1154
- Virus yield reduction ([7]; WA1/2020, VeroE6, 1.85185 µM): -1.903
- A549-hACE2 SARS-CoV-2 Nluc (EC50 determination), normalized signal ([8]; Conc 0.023 µM): 100.31 and 91.27 and 105.35 and 111.17 and 106.25 and 121.34 and 128.97 and 56.85
- A549-hACE2 SARS-CoV-2 Nluc (EC50 determination), normalized signal ([8]; Conc 0.069 µM): 81.07 and 111.32 and 107.14 and 109.98 and 64.03 and 99.75 and 127.29 and 97.36
- A549-hACE2 SARS-CoV-2 Nluc (EC50 determination), normalized signal ([8]; Conc 0.206 µM): 99.03 and 101.58 and 96.21 and 106.69 and 74.78 and 94.61 and 130.86 and 135.24
- A549-hACE2 SARS-CoV-2 Nluc (EC50 determination), normalized signal ([8]; Conc 0.617 µM): 93.09 and 77.54 and 84.50 and 82.94 and 7.92 and 26.38 and 11.95 and 19.80
- A549-hACE2 SARS-CoV-2 Nluc (EC50 determination), normalized signal ([8]; Conc 1.852 µM): 11.60 and 8.15 and 9.31 and 12.89 and 0.89 and 0.94 and 1.04 and 0.76
- A549-hACE2 SARS-CoV-2 Nluc (EC50 determination), normalized signal ([8]; Conc 5.556 µM): 0.61 and 1.05 and 0.64 and 0.93 and 0.44 (2×) and 0.49 and 0.36
- A549-hACE2 SARS-CoV-2 Nluc (EC50 determination), normalized signal ([8]; Conc 16.667 µM): 0.46 and 0.65 and 0.58 and 0.40 and 0.32 (2×) and 0.31 and 0.28
- A549-hACE2 SARS-CoV-2 Nluc (EC50 determination), normalized signal ([8]; Conc 50.000 µM): 0.15 (3×) and 0.14 and 0.29 (2×) and 0.24 and 0.26
- EC50 ([8]; Severe acute respiratory syndrome coronavirus 2, WA1/2020-nano luciferase, A549-ACE2, mean ± SD): 0.72 µM
- basolateral drug concentration at which epithelium integrity (TEER) was fully preserved [9]: ≥ 3 µM
- viability at 72 h, 1.235 µM (in vitro [10]; HCT-8, 1.235 µM): 115%
- viability at 72 h, 3.704 µM (in vitro [10]; HCT-8, 3.704 µM): 114%
- viability at 72 h, 33.333 µM (in vitro [10]; HCT-8, 33.333 µM): 106%
- oral bioavailability (in words) [11]: excellent oral bioavailability
- plasma concentration of GS-621763 ([11]; 0.25 h): 9.27 and 11.5 and 13.7
- plasma concentration of GS-621763 ([11]; 1 h): 5.98 and 3.18 and 4.36
- plasma GS-621763 (intact prodrug) transiently observed ([11]; GS-621763 p.o. 30 mg/kg, first two hours): approximately 10 nM
- GS-441524 in blood relative to intact prodrug ([11]; after oral administration of GS-621763): more than three orders of magnitude higher
- % cell viability (“F3” primary HAE cells; 0.046 µM): 79%
- % cell viability (“F3” primary HAE cells; 3.704 µM): 115%
- % cell viability (“F3” primary HAE cells; 33.333 µM): 86%
- CC50 (“F3” primary HAE cells; “F3” HAE): 43.8 µM
- viability at 72 h, 1.235 µM ([12]; female, % cell viability, F3 HAE, 1.235 µM): 121%
- viability at 72 h, 3.704 µM ([12]; female, % cell viability, F3 HAE, 3.704 µM): 111%
- viability at 72 h, 33.333 µM ([12]; female, % cell viability, F3 HAE, 33.333 µM): 81%
- viability at 72 h, 0.046 µM ([12]; female, “F3” primary human airway epithelial (HAE) cells, % cell viability, F3 HAE, 0.046 µM): 83%
- viability at 72 h, 100 µM ([12]; % cell viability, F3 HAE, 100 µM): 1%
- CC50 at 72 h ([12]; CC50, “F3” HAE): 43.8 µM
- viability at 72 h, 33.333 µM (in vitro [13]): 112%
- CC50 at 72 h [14]: > 100 µM
- viability at 72 h, 0.046 µM ([14]; % cell viability, BHK-21, 0.046 µM, 72 h): 76%
- viability at 72 h, 1.235 µM ([14]; % cell viability, BHK-21, 1.235 µM, 72 h): 90%
- viability at 72 h, 3.704 µM ([14]; % cell viability, BHK-21, 3.704 µM, 72 h): 90%
- viability at 72 h, 33.333 µM ([14]; % cell viability, BHK-21, 33.333 µM, 72 h): 91%
- viability at 72 h, 100 µM ([14]; % cell viability, BHK-21, 100 µM, 72 h): 85%
- viability at 72 h, 0.046 µM ([15]; % cell viability, HEp-2, 0.046 µM, 72 h): 53%
- viability at 72 h, 1.235 µM ([15]; % cell viability, HEp-2, 1.235 µM, 72 h): 95%
- viability at 72 h, 3.704 µM ([15]; % cell viability, HEp-2, 3.704 µM, 72 h): 104%
- viability at 72 h, 33.333 µM ([15]; % cell viability, HEp-2, 33.333 µM, 72 h): 111%
- CC50 at 72 h ([15]; CC50, HEp-2, 72 h): 79.4 µM
- reduction in titer in vitro (to the limit of detection) [16]: ~ 1 log
- EC50 ([16]; Severe acute respiratory syndrome coronavirus 2, Vero C1008, CA/2020, VeroE6, mean n=3): 0.21 µM
- increase of oral F compared to GS-441524 ([17]; rats and cynomolgus macaques, ref Mackman et al 2021): greater than 5 fold
- oral bioavailability (in words) ([17]; two relevant animal species including non-human primates): high oral bioavailability
- viability at 72 h, 0.046 µM ([18]; % cell viability, HCT-8, 0.046 µM, 72 h): 78%
- viability at 72 h, 3.704 µM ([18]; % cell viability, HCT-8, 3.704 µM, 72 h): 104%
- viability at 72 h, 33.333 µM ([18]; % cell viability, HCT-8, 33.333 µM, 72 h): 99%
- viability at 72 h, 100 µM ([18]; % cell viability, HCT-8, 100 µM, 72 h): 2%
- CC50 at 72 h ([18]; CC50, HCT-8, 72 h): 74.6 µM
- viability at 72 h, 0.046 µM (in vitro [19]; female, % cell viability): 84%
- viability at 72 h, 3.704 µM (in vitro [19]; female, % cell viability): 120%
- viability at 72 h, […] (in vitro [19]; female, % cell viability): 95%
- viability at […] (in vitro [19]; female, % cell viability): 101%
- viability at 1.235 µM (in vitro [19]; female, % cell viability, DF2 HAE, 1.235 µM, 72 h): 103%
- viability at 3.704 µM (in vitro [19]; female, % cell viability, DF2 HAE, 3.704 µM, 72 h): 116%
- viability at 33.333 µM (in vitro [19]; female, % cell viability, DF2 HAE, 33.333 µM, 72 h): 112%
- CC50 at 72 h (in vitro [19]): 86 µM
- viability at 72 h, 100 µM (in vitro [19]; % cell viability): 4%
- EC50 [20]: 3.01 µM
- EC50 [21]: 0.22 µM
- % cell viability (“M6” primary HAE cells; 1.235 µM): 96%
- % cell viability (“M6” primary HAE cells; 3.704 µM): 70% and 86%
- % cell viability (“M6” primary HAE cells; 33.333 µM): 99%
- % cell viability (“M6” primary HAE cells; 100 µM): 46% and 45%
- CC50 at 72 h [22]: 92.3 µM
- viability at 72 h, 100 µM ([22]; % cell viability, M6 HAE, 100 µM, 72 h): 42%
- viability at 72 h, 1.235 µM ([22]; male, % cell viability, M6 HAE, 1.235 µM, 72 h): 97%
- viability at 72 h, 33.333 µM ([22]; male, % cell viability, M6 HAE, 33.333 µM, 72 h): 94%
- CC50 at 48 h (in vitro [23]): > 47 µM
